This is an account of results in US20070032418A1, “Small-molecule inhibitors of angiogenin and rnases and in vivo and in vitro methods of using same” (Ambion, Inc, priority 2003, published 2007).

Experiment [1] relates to HT-29 human colonic adenocarcinoma cells. Put plainly: HT-29 tumor formation in athymic mice. To be noted: local treatment s.c. 40 μg/day, 6×/week. Type of experiment: in vivo. How it is done:
Mice were examined 2×/week for palpable tumors. Treatment doses: 40 μg/day (A and C); 8 μg/day (B). n=8 for all groups except the vehicle controls in A and B, where n=12.

Experiment [2] has as its system PC-3 human prostate tumor cells. Put plainly: PC-3 tumor formation in athymic mice. Type of experiment: in vivo. The method, then:
Compound NCI-65828 was identified by HTS as an ANG inhibitor. […] Each compound was administered 6 times per week, in doses of 40 μg, 8 μg, and 1.6 μg (about 2, 0.4 and 0.08 mg/kg/day). The compound was dissolved in DMSO, and control mice received a corresponding volume of DMSO (4%, 0.8% and 0%). Another control group received saline.
Another in vivo mouse experiment was performed using 8 or 12 mice per group. The experimental group was administered PC-3 cells and NCI-65828, as intraperitoneal injections (40 μg and 8 μg). A control group of mice was administered PC-3 cells and a related compound that was known to be ineffective at inhibiting ANG enzymatic activity. Mice were evaluated for number of animals that remained tumor free as a function of time, at intervals of 3 days from days 14-42 following the initial injection.
Concentrated stocks of inhibitors were prepared in dimethylsulfoxide (DMSO), and the inhibitors were diluted into phosphate-buffered saline (PBS); the final DMSO concentration for the 40 μg and 20 μg doses was 4% in PBS, and that for the 8 μg and 4 μg doses was 0.8% in PBS. Statistical significance (P values) was determined from Mantel-Cox tests performed on Kaplan-Meier survivor functions. Results for inhibitor-treated groups were compared to results obtained with the appropriate DMSO control groups. A positive control group of mice, administered antisense DNA specific for the ANG gene in PBS (no DMSO), was also included. ANG antisense DNA was shown previously to be extremely effective in this tumor model.
Tumor cells from a human prostate cancer (PC-3) were injected subcutaneously (s.c.) in the shoulder of 6-7 week old athymic (nude) mice on day 0. Treatment with the indicated amount of inhibitor (in 100 μL) was given subcutaneously in the same area as the cells, 6 times per week, with the first injection 5-10 minutes prior to injection of the cells. The total dosage was 0.4 mg to 2 mg per kg per day.

For a further experiment, the target named is angiogenin (ANG) (Homo sapiens, UniProt P03950). Put plainly: Inhibition of ANG ribonucleolytic activity, HPLC assay of oligonucleotide cleavage. The class given is biochemical. The following applies: 20 mM Hepes, 100 mM NaCl. How it is done: Reaction mixtures with and without test compounds were chromatographed on a Mono Q anion-exchange column with an NaCl gradient in 10 mM Tris, pH 8. […] This information was used to calculate kcat/Km values, which were then fitted to the equation (kcat/Km)i=(kcat/Km)0/[…], where (kcat/Km)i and (kcat/Km)0 are defined as the values in the presence and absence of inhibitor, respectively, and [I] is defined as the inhibitor concentration. At least four concentrations (in a range of about 10 μM-above 100 μM) were used in the final hit confirmation in order to distinguish all true hits.
Chemical structures of selected compounds are shown in these Tables and in FIGS. 4 and 5.

The target of a further experiment is E. coli RNase I (Escherichia coli, UniProt P21338). Put plainly: Intactness of total RNA challenged with purified RNase. The class given is biochemical. To be noted: 100 uM inhibitor; E. coli RNase I 7 ng/ul; 100 ng/ul mouse liver total RNA, 23° C., 4 min.
[3] abbreviates: PC-3 s.c., 8 μg s.c. 6 times per week.
The mark [4] stands for this setting: PC-3 s.c., 40 μg s.c. 6 times per week.
Setting [5] is: pH 7.0, 37° C., read-out: Ki for inhibition of the ribonucleolytic activity of angiogenin.
[6] abbreviates: inhibition of ANG-catalyzed cleavage of an RNA oligonucleotide, 37° C., read-out: KI.

“Also recorded” adds a separate entry of the source. Like-named read-outs stand apart in the source and are kept apart here.

angiogenin (ANG), sequence (P03950 25-147): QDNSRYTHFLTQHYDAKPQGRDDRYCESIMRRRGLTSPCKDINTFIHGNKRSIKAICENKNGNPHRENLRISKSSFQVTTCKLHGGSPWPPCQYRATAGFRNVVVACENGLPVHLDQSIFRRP
E. coli RNase I, sequence (P21338 24-268): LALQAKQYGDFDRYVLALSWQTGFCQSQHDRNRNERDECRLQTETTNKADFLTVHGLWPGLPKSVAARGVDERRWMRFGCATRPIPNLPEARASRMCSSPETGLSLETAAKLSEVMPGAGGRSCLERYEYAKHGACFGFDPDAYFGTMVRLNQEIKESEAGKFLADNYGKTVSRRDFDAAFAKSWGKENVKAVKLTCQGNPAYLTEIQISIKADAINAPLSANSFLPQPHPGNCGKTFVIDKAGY

As to `Nc1ccc(/N=N/c2ccc(-c3ccc(O)cc3)cc2)c2ccc(S(=O)(=O)O)cc12` [NCI-65828, 8-amino-5-(4′-hydroxybiphenyl-4-ylazo)naphthalene-2-sulfonate], the “Formation of tumors (FIG. 1C)” value in experiment [1] is listed as “delay or prevention; also recorded: significantly delayed the formation of tumors”. For the same compound, in experiment [2] (PC-3, 40 μg and 8 μg, days 14-42, vs controls), the “Appearance of tumors (FIGS. 1A and 1B)” value is listed as “delay or prevention; also recorded: delayed the appearance of tumors”. Moreover, the “Rate of tumor development (preliminary test)” value in experiment [2] (PC-3, s.c. 6 times per week, doses of 40 μg, 8 μg and 1.6 μg, vs control groups) is listed as “developed tumors at a slower rate”. For the same compound, in experiment [2] (setting [3]), the “Percentage of Tumor-Bearing Mice, day 14” value is given as 0%; the “Percentage of Tumor-Bearing Mice, day 17” value came out at 38%; the “Percentage of Tumor-Bearing Mice, day 21” value turned out to be 50%; the “Percentage of Tumor-Bearing Mice, day 24” value is reported as 100%. In experiment [2] (setting [3]), the “Percentage of Tumor-Bearing Mice, day 32” value amounted to 100% and the “Percentage of Tumor-Bearing Mice, day 35” value was found to be 100%. In experiment [2] (setting [4]), the “Percentage of Tumor-Bearing Mice, day 14” value amounted to 0%; the “Percentage of Tumor-Bearing Mice, day 17” value turned out to be 25%; the “Percentage of Tumor-Bearing Mice, day 21” value was found to be 50%; the “Percentage of Tumor-Bearing Mice, day 24” value is 100%. In experiment [2] (setting [4]), the “Percentage of Tumor-Bearing Mice, day 32” value was determined as 100% and the “Percentage of Tumor-Bearing Mice, day 35” value came out at 100%. For the same compound, in experiment [2] (PC-3 s.c., treatment s.c. 6 times per week), the “Time of appearance of tumors (Example 3, Table 1)” value is reported as “delayed considerably the time of appearance of tumors”. Besides, at angiogenin (ANG) (setting [5]), the Ki is 81 µM. Besides, the Ki at angiogenin (ANG) (setting [6]) is 81 µM.

With Benzopurpurin B, the “Protection of total RNA from degradation” value at E. coli RNase I is “significant protection from RNA degradation”. The Ki on angiogenin (ANG) (setting [5]) and at angiogenin (ANG) (setting [6]) was 5 µM each time.

A word on the Ki: it is a measure of affinity in units of concentration, obtained from inhibition or displacement.
